Test systems include HCT-116; RXF 393; SK-OV-3; MDA-MB-435; TK-10; NCI-H226; OVCAR-8; MDA-N; SF-295; NCI/ADR-RES; IGROV-1; SF-539; RPMI-8226; SR; 786-0; K562; HOP-62; CAKI-1; NCI-H23; SN12C.
Assay in all cases: NCI-60 cell line screen, 48 h

SMILES strings stand for the structures.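 Cultured in 96-well plates, cells were exposed to test compound for 48 hours across five concentrations. Abbreviation: GI50, concentration required for 50% inhibition of growth.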 The source made the active and inactive calls. No stated cut-off is given here; in the data, active = GI50 up to about 1.1 µM and inactive = higher. A value given as a limit tells only on which side of the number the result lay.

Turning to `O=C1CC(c2ccccc2)n2c(nc3ccccc32)N1` (stereo not given), the GI50 with HCT-116 was > 100 µM (inactive); in the experiment on RXF 393, 21 µM (inactive); in the experiment on SK-OV-3, > 100 µM (inactive); in the experiment with MDA-MB-435, 37.8 µM (inactive); in the experiment on TK-10, > 100 µM (inactive); in the experiment with NCI-H226, > 100 µM (inactive). The GI50 was > 100 µM (inactive) with OVCAR-8; 73.5 µM (inactive) in the experiment on MDA-N; > 100 µM (inactive) with SF-295; > 100 µM (inactive) in the experiment on NCI/ADR-RES; 47.4 µM (inactive) with IGROV-1; > 100 µM (inactive) with SF-539. The GI50 in the experiment with RPMI-8226 was 27 µM (inactive); in the experiment with SR, 36.2 µM (inactive); in the experiment on 786-0 it was 74.8 µM (inactive); in the experiment with K562 it was 23.7 µM (inactive); in the experiment on HOP-62 it was > 100 µM (inactive); with CAKI-1 it was 35.3 µM (inactive). For the same molecule, the GI50 with NCI-H23 was 64.1 µM (inactive).

As to `O=C1N/N=C\c2ccc(cc2)OCc2cccc(n2)COc2ccc(cc2)/C=N\NC1=O`, the GI50 in the experiment on HCT-116, with RXF 393, in the experiment with SK-OV-3, in the experiment on MDA-MB-435, with TK-10 and in the experiment with NCI-H226 was > 25 µM (inactive) in each case. Also, the GI50 with OVCAR-8, in the experiment with MDA-N, with SF-295, in the experiment with NCI/ADR-RES, in the experiment on IGROV-1 and in the experiment with SF-539 was > 25 µM (inactive) each time. The GI50 with RPMI-8226, in the experiment on SR, with 786-0, with K562, in the experiment with SN12C and with HOP-62 was > 25 µM (inactive) each time. In addition, the GI50 in the experiment on NCI-H23 is > 25 µM (inactive).

For the molecule `O=S(=O)(Nc1ccccc1S(=O)(=O)c1ccccc1)c1ccccc1`, the GI50 with HCT-116 is 77.1 µM (inactive); with RXF 393 it was > 100 µM (inactive); in the experiment on SK-OV-3, > 100 µM (inactive); in the experiment on MDA-MB-435, > 100 µM (inactive); in the experiment with TK-10, > 100 µM (inactive); with NCI-H226 it was > 100 µM (inactive). Further, the GI50 in the experiment on OVCAR-8 is 68.5 µM (inactive); in the experiment with MDA-N, > 100 µM (inactive); in the experiment with SF-295, 94.4 µM (inactive); in the experiment with NCI/ADR-RES, 57.1 µM (inactive); with IGROV-1 it was > 100 µM (inactive); in the experiment on SF-539, > 100 µM (inactive). Also, the GI50 was 32.3 µM (inactive) with RPMI-8226; > 100 µM (inactive) in the experiment with SR; > 100 µM (inactive) with 786-0; 61.5 µM (inactive) with K562; > 100 µM (inactive) with SN12C; > 100 µM (inactive) in the experiment on HOP-62. The GI50 in the experiment with CAKI-1 is > 100 µM (inactive); in the experiment with NCI-H23, 46.7 µM (inactive).

Regarding `COC(=O)[C@@H]1CC(C(CN)c2cn(C(=O)OC(C)(C)C)c3ccccc23)C(=O)N1C(=O)OC(C)(C)C` (stereo not given in full), the GI50 is 44.3 µM (inactive) with HCT-116; 18 µM (inactive) in the experiment with RXF 393; 21.5 µM (inactive) in the experiment with MDA-MB-435; 38.9 µM (inactive) in the experiment with TK-10; 29.9 µM (inactive) in the experiment with NCI-H226; 21.7 µM (inactive) in the experiment on OVCAR-8. In addition, the GI50 in the experiment on MDA-N was 20 µM (inactive); in the experiment on SF-295, 21.6 µM (inactive); in the experiment with NCI/ADR-RES, 17.2 µM (inactive); with IGROV-1, 17.9 µM (inactive); in the experiment on SF-539, 13.8 µM (inactive); with RPMI-8226, 10.6 µM (inactive). Further, the GI50 in the experiment on SR was 23.1 µM (inactive); in the experiment on 786-0 it was 31.3 µM (inactive); in the experiment on K562, 21.9 µM (inactive); with SN12C it was 17.8 µM (inactive); in the experiment with HOP-62 it was 86.7 µM (inactive); in the experiment with CAKI-1, 29.2 µM (inactive). Further, the GI50 with NCI-H23 is 35.8 µM (inactive).

As to `CC1=CC(=O)/C(=C/n2c(=S)[nH]c3ccc([N+](=O)[O-])cc32)C(=O)O1`, the GI50 with HCT-116, in the experiment with RXF 393, with SK-OV-3, in the experiment on MDA-MB-435, in the experiment on TK-10 and with NCI-H226 was > 100 µM (inactive) each time. In addition, the GI50 in the experiment with OVCAR-8, with MDA-N, with SF-295, in the experiment on NCI/ADR-RES, in the experiment on IGROV-1 and with SF-539 was > 100 µM (inactive) in each case. Besides, the GI50 in the experiment with RPMI-8226, in the experiment with SR, in the experiment on 786-0, in the experiment on K562, with SN12C and in the experiment on HOP-62 was > 100 µM (inactive) in each case. In addition, the GI50 in the experiment with NCI-H23 is > 100 µM (inactive).

Turning to `C=CC(Cl)(CBr)CCC(Br)=C(C)C` (stereo not given), the GI50 in the experiment on HCT-116 was 23.6 µM (inactive); in the experiment on RXF 393 it was 17.5 µM (inactive); with MDA-MB-435, 20.4 µM (inactive); in the experiment with TK-10, 26.3 µM (inactive); with NCI-H226, 44.8 µM (inactive); with OVCAR-8, 24.9 µM (inactive). Also, the GI50 is 19.4 µM (inactive) in the experiment on MDA-N; 35.9 µM (inactive) in the experiment on SF-295; 28.8 µM (inactive) in the experiment on NCI/ADR-RES; 12.1 µM (inactive) with IGROV-1; 21.4 µM (inactive) with SF-539; 21.1 µM (inactive) in the experiment with RPMI-8226. The GI50 in the experiment with SR is 21.7 µM (inactive); with 786-0 it was 25.6 µM (inactive); in the experiment on K562 it was 31.2 µM (inactive); in the experiment with SN12C, 16.9 µM (inactive); with HOP-62, > 100 µM (inactive); in the experiment on CAKI-1 it was 9.31 µM (inactive). The GI50 with NCI-H23 was 25.9 µM (inactive).

For the molecule `CC(C)(C)OC(=O)CN1C(=O)CC1CC(=O)c1ccccc1` (stereo not given), the GI50 in the experiment with HCT-116 is 24.8 µM (inactive); with RXF 393, 18.5 µM (inactive); in the experiment with MDA-MB-435, 18.9 µM (inactive); in the experiment on TK-10, 30.2 µM (inactive); in the experiment with NCI-H226, 25.1 µM (inactive); in the experiment on OVCAR-8, 17.3 µM (inactive). In addition, the GI50 in the experiment with MDA-N is 20.3 µM (inactive); in the experiment on SF-295, 26.9 µM (inactive); in the experiment on NCI/ADR-RES, 35.1 µM (inactive); in the experiment on IGROV-1, 18.3 µM (inactive); in the experiment on SF-539, 19.4 µM (inactive); in the experiment with RPMI-8226 it was 3.05 µM (inactive). Besides, the GI50 in the experiment with SR is 2.89 µM (inactive); in the experiment on 786-0 it was 17.5 µM (inactive); with K562, 4.14 µM (inactive); in the experiment on SN12C, 23.2 µM (inactive); in the experiment on HOP-62, 17 µM (inactive); in the experiment with CAKI-1, 22.4 µM (inactive). For the same molecule, in the experiment with NCI-H23, the GI50 is 18.5 µM (inactive).

As for `CCN(CC)C(=O)Cn1c(-c2ccccc2)cc2ccccc21`, the GI50 with HCT-116 was 24.8 µM (inactive); in the experiment with RXF 393 it was 22.9 µM (inactive); with SK-OV-3, 40.8 µM (inactive); in the experiment with MDA-MB-435, 34.1 µM (inactive); in the experiment with TK-10, 34.9 µM (inactive); in the experiment with NCI-H226, 42.7 µM (inactive). Besides, the GI50 is 35.9 µM (inactive) in the experiment with OVCAR-8; 28.1 µM (inactive) in the experiment on MDA-N; 23.4 µM (inactive) with NCI/ADR-RES; 60.8 µM (inactive) in the experiment with IGROV-1; 34.4 µM (inactive) in the experiment on SF-539; > 10 µM (inactive) with RPMI-8226. Moreover, the GI50 with SR is 32.5 µM (inactive); in the experiment on 786-0 it was 45.1 µM (inactive); with K562, 25.8 µM (inactive); in the experiment on SN12C, 97.3 µM (inactive); with HOP-62, 57.5 µM (inactive); with NCI-H23, 44.4 µM (inactive).

With `N#Cc1c(-c2ccc(F)cc2)c(-c2ccc(F)cc2)nn(CCO)c1=O`, the GI50 in the experiment on HCT-116 is 0.119 µM (active); in the experiment on RXF 393 it was 0.378 µM (active); in the experiment with SK-OV-3, 0.288 µM (active); with MDA-MB-435, 0.0641 µM (active); in the experiment on TK-10 it was 3.36 µM (inactive); in the experiment on NCI-H226 it was 1.77 µM (inactive). In addition, the GI50 was 0.0492 µM (active) in the experiment on MDA-N; 0.224 µM (active) in the experiment on SF-295; 0.805 µM (active) in the experiment on NCI/ADR-RES; 0.155 µM (active) with IGROV-1; 0.198 µM (active) in the experiment on SF-539; 0.213 µM (active) in the experiment with RPMI-8226. In addition, the GI50 was 0.2 µM (active) in the experiment with SR; 0.421 µM (active) in the experiment with 786-0; 0.103 µM (active) with K562; 0.27 µM (active) in the experiment with SN12C; 0.493 µM (active) in the experiment with HOP-62; 1.53 µM (inactive) in the experiment on CAKI-1. For the same molecule, in the experiment with NCI-H23, the GI50 was 0.948 µM (active).

For the molecule `O=C(O)c1cc(N(Cc2ccccc2O)Cc2cc(O)ccc2O)ccc1O` [LAVENDUSTIN A], the GI50 with HCT-116, in the experiment with RXF 393, in the experiment on SK-OV-3, in the experiment with MDA-MB-435, in the experiment on TK-10 and in the experiment with NCI-H226 was > 100 µM (inactive) each time. Further, the GI50 in the experiment with OVCAR-8, in the experiment with MDA-N, with SF-295, in the experiment with NCI/ADR-RES, in the experiment with IGROV-1 and in the experiment on SF-539 was > 100 µM (inactive) in each case. For the same molecule, the GI50 was > 100 µM (inactive) in the experiment on RPMI-8226; 82.8 µM (inactive) with SR; > 100 µM (inactive) in the experiment on 786-0; > 100 µM (inactive) with K562; > 100 µM (inactive) in the experiment on SN12C; > 100 µM (inactive) with HOP-62. In addition, the GI50 with NCI-H23 was > 100 µM (inactive).

These data come from ChEMBL document CHEMBL1201862, “PubChem BioAssay data set” (2004).
